Patent US20250074920A1, “MACROCYCLIC COMPOUNDS AND USE AS KINASE INHIBITORS” (BLOSSOMHILL THERAPEUTICS, INC., priority 2022, published 2025)

What was measured:
Experiment in all cases: KINOMEscan kinase binding assay
[1] = tested on: JAK1(JH2domain-pseudokinase); details: for % Ctrl: JAK1(JH2domain-pseudokinase), at 1 μM; for Kd: read-out: JAK1(JH2 domain-pseudokinase) Kd
Outline: (§1)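 We measured how much kinase stayed bound to an immobilized small-molecule ligand when test compound was present. Binding ran at room temperature for 1 h, and the kinase eluted from the beads was counted by qPCR. Lower % Ctrl indicated tighter compound binding.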

INSR = details: at 1 μM
Outline: as §1

VEGFR2 = details: at 1 μM
Outline: as §1

FER = details: at 1 μM
Outline: as §1

[2] = tested on: TYK2(JH2domain-pseudokinase); details: for % Ctrl: TYK2(JH2domain-pseudokinase), at 1 μM; for Kd: read-out: TYK2(JH2 domain-pseudokinase) Kd
Outline: (§2)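 KINOMEscan competition assay. T7-phage kinase fusions (E. coli lysates) or DNA-tagged HEK-293 kinases; immobilized biotinylated ligand on beads; 1 h RT incubation; qPCR detection of bound kinase. Output: % Ctrl or Kd.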

FRK = details: at 1 μM
Outline: as §1

BRK = details: at 1 μM
Outline: as §1

EGFR(L861Q) = details: at 1 μM
Outline: as §2

HCK = details: at 1 μM
Outline: as §1

EPHA8 = details: at 1 μM
Outline: as §1

EPHB4 = details: at 1 μM
Outline: as §1

CTK = details: at 1 μM
Outline: as §1

MUSK = details: at 1 μM
Outline: as §1

KIT(D816H) = details: at 1 μM
Outline: as §1

PDGFRA = details: at 1 μM
Outline: as §1

[3] = tested on: ABL1(F317L)-nonphosphorylated; details: at 1 μM
Outline: as §1

[4] = tested on: ABL1(M351T)-phosphorylated; details: at 1 μM
Outline: as §1

ALK(L1196M) = details: at 1 μM
Outline: as §1

[5] = tested on: ABL1(Q252H)-phosphorylated; details: at 1 μM
Outline: as §1

EGFR(S752-1759del) = details: at 1 μM
Outline: as §2

FLT3-autoinhibited = details: at 1 μM
Outline: as §1

MET = details: at 1 μM
Outline: as §1

[6] = tested on: JAK1(JH1domain-catalytic); details: for % Ctrl: JAK1(JH1domain-catalytic), at 1 μM; for Kd: read-out: JAK1(JH1 domain-catalytic) Kd
Outline: as §2

KIT = details: at 1 μM
Outline: as §1

SRC = details: at 1 μM
Outline: as §1

FGFR3(G697C) = details: at 1 μM
Outline: as §1

TIE1 = details: at 1 μM
Outline: as §1

MET(Y1235D) = details: at 1 μM
Outline: as §1

ALK(C1156Y) = details: at 1 μM
Outline: as §1

FGR = details: at 1 μM
Outline: as §1

KIT-autoinhibited = details: at 1 μM
Outline: as §1

ITK = details: at 1 μM
Outline: as §1

DDR2 = details: at 1 μM
Outline: as §1

EPHB6 = details: at 1 μM
Outline: as §1

EGFR(L858R, T790M) = details: at 1 μM
Outline: as §2

KIT(V559D, V654A) = details: at 1 μM
Outline: as §1

RET(M918T) = details: at 1 μM
Outline: as §1

TIE2 = details: at 1 μM
Outline: as §1

[7] = tested on: ABL1(T315I)-phosphorylated; details: at 1 μM
Outline: as §1

Cc1cc2c([nH]1)/C=C1\C(=O)Nc3c(Cl)cc(cc31)-c1cn(C)nc1COC[C@@H](C)N(C)C2=O [Cpd. 5, [3a(4)Z,10R]-20-chloro-6,9,10,15-tetramethyl-10,11,13,15-tetrahydro-2H-1,17-(ethanediylidene)pyrazolo[4,3-m]dipyrrolo[3,2-f:3′,4′-i][1,4]oxazacyclopentadecine-3,8(5H,9H)-dione]
% Ctrl [1]: 0.85% | Kd [1]: 50 nM | % Ctrl (INSR): 94% | % Ctrl (VEGFR2): 92% | % Ctrl (FER): 68% | % Ctrl [2]: 0% | Kd [2]: 0.18 nM | % Ctrl (FRK): 80% | % Ctrl (BRK): 79% | % Ctrl (EGFR(L861Q)): 94% | % Ctrl (HCK): 100% | % Ctrl (EPHA8): 77% | % Ctrl (EPHB4): 91% | % Ctrl (CTK): 84% | % Ctrl (MUSK): 100% | % Ctrl (KIT(D816H)): 77% | % Ctrl (PDGFRA): 95% | % Ctrl [3]: 86% | % Ctrl [4]: 94% | % Ctrl (ALK(L1196M)): 86% | % Ctrl [5]: 89% | % Ctrl (EGFR(S752-1759del)): 100% | % Ctrl (FLT3-autoinhibited): 87% | % Ctrl (MET): 96% | % Ctrl [6]: 100% | Kd [6]: > 10000 nM | % Ctrl (KIT): 98% | % Ctrl (SRC): 100% | % Ctrl (FGFR3(G697C)): 93% | % Ctrl (TIE1): 91% | % Ctrl (MET(Y1235D)): 100% | % Ctrl (ALK(C1156Y)): 90% | % Ctrl (FGR): 93% | % Ctrl (KIT-autoinhibited): 83% | % Ctrl (ITK): 96% | % Ctrl (DDR2): 76% | % Ctrl (EPHB6): 92% | % Ctrl (EGFR(L858R, T790M)): 64% | % Ctrl (KIT(V559D, V654A)): 91% | % Ctrl (RET(M918T)): 87% | % Ctrl (TIE2): 92% | % Ctrl [7]: 70%

Cc1cc2c([nH]1)/C=C1\C(=O)Nc3c(Cl)cc(cc31)-c1cn(C)nc1COC[C@@H](C)NC2=O [Cpd. 3, [3a(4)Z,10R]-20-chloro-6,10,15-trimethyl-10,11,13,15-tetrahydro-2H-1,17-(ethanediylidene)pyrazolo[4,3-m]dipyrrolo[3,2-f:3′,4′-i][1,4]oxazacyclopentadecine-3,8(5H,9H)-dione]
% Ctrl [1]: 3.1% | Kd [1]: 120 nM | % Ctrl (INSR): 78% | % Ctrl (VEGFR2): 92% | % Ctrl (FER): 73% | % Ctrl [2]: 0% | Kd [2]: 3 nM | % Ctrl (FRK): 97% | % Ctrl (BRK): 95% | % Ctrl (EGFR(L861Q)): 98% | % Ctrl (HCK): 100% | % Ctrl (EPHA8): 90% | % Ctrl (EPHB4): 97% | % Ctrl (CTK): 80% | % Ctrl (MUSK): 98% | % Ctrl (KIT(D816H)): 94% | % Ctrl (PDGFRA): 92% | % Ctrl [3]: 95% | % Ctrl [4]: 99% | % Ctrl (ALK(L1196M)): 94% | % Ctrl [5]: 100% | % Ctrl (EGFR(S752-1759del)): 94% | % Ctrl (FLT3-autoinhibited): 93% | % Ctrl (MET): 100% | % Ctrl [6]: 100% | Kd [6]: > 10000 nM | % Ctrl (KIT): 100% | % Ctrl (SRC): 100% | % Ctrl (FGFR3(G697C)): 89% | % Ctrl (TIE1): 93% | % Ctrl (MET(Y1235D)): 100% | % Ctrl (ALK(C1156Y)): 89% | % Ctrl (FGR): 98% | % Ctrl (KIT-autoinhibited): 87% | % Ctrl (ITK): 100% | % Ctrl (DDR2): 100% | % Ctrl (EPHB6): 86% | % Ctrl (EGFR(L858R, T790M)): 72% | % Ctrl (KIT(V559D, V654A)): 100% | % Ctrl (RET(M918T)): 100% | % Ctrl (TIE2): 97% | % Ctrl [7]: 69%

Cc1cc2c([nH]1)/C=C1\C(=O)Nc3ccc(cc31)-c1c(nn(C)c1C)COCCN(C)C2=O [Cpd. 2, [3a(4)Z]-6,9,15,16-tetramethyl-10,11,13,15-tetrahydro-2H-1,17-(ethanediylidene)pyrazolo[4,3-m]dipyrrolo[3,2-f:3′,4′-i][1,4]oxazacyclopentadecine-3,8(5H,9H)-dione]
% Ctrl [1]: 30% | % Ctrl (INSR): 100% | % Ctrl (VEGFR2): 48% | % Ctrl (FER): 100% | % Ctrl [2]: 0.6% | Kd [2]: 1.2 nM | % Ctrl (FRK): 98% | % Ctrl (BRK): 100% | % Ctrl (EGFR(L861Q)): 62% | % Ctrl (HCK): 100% | % Ctrl (EPHA8): 92% | % Ctrl (EPHB4): 100% | % Ctrl (CTK): 93% | % Ctrl (MUSK): 100% | % Ctrl (KIT(D816H)): 98% | % Ctrl (PDGFRA): 73% | % Ctrl [3]: 87% | % Ctrl [4]: 57% | % Ctrl (ALK(L1196M)): 94% | % Ctrl [5]: 62% | % Ctrl (EGFR(S752-1759del)): 80% | % Ctrl (FLT3-autoinhibited): 83% | % Ctrl (MET): 95% | % Ctrl [6]: 100% | Kd [6]: > 10000 nM | % Ctrl (KIT): 100% | % Ctrl (SRC): 100% | % Ctrl (FGFR3(G697C)): 93% | % Ctrl (TIE1): 61% | % Ctrl (MET(Y1235D)): 87% | % Ctrl (ALK(C1156Y)): 93% | % Ctrl (FGR): 100% | % Ctrl (KIT-autoinhibited): 100% | % Ctrl (ITK): 80% | % Ctrl (DDR2): 100% | % Ctrl (EPHB6): 93% | % Ctrl (EGFR(L858R, T790M)): 62% | % Ctrl (KIT(V559D, V654A)): 92% | % Ctrl (RET(M918T)): 92% | % Ctrl (TIE2): 63% | % Ctrl [7]: 5.3%
